pIC50: −log10 of the molar value. Like-named read-outs stand apart in the source and are kept apart here. Where a SMILES comes first, the peptide text is derived from it. [ ]: non-standard residue; d: D form. ξ: configuration not given here. NMehCys = CN[C@@H](CCS)C(=O)O; Thr(3ξ) = CC(O)[C@H](N)C(=O)O
What was measured:
[1] = test system: AR42J tumor xenografts; test: Biodistribution of 99mTc-labeled compounds in nude mice with AR42J tumor xenografts; format: in vivo; conditions: 99mTc-labeled compound, 90 minutes post-injection; for TUMOR: i.v.; for T:B: tumor to blood ratio; for T:M: tumor to muscle ratio
Procedure: Rat pancreatic AR42J cells (ATCC, Rockville, Md., USA) were grown in Modified Ham's F12K medium (Cat. No. N-3520, Sigma, St. Louis, Mo., USA) containing 20% fetal bovine serum (FCS) (Cat. No. 1224, Lot No. 9702058, Sigma, St. Louis, Mo., USA) under sterile conditions in 95% humidity and 5% CO2. At a density of approximately 10×10^6 cells per T150 flask, the cells were harvested with trypsin and collected by centrifugation at 2400 rpm (800×g) for 15 minutes in a benchtop centrifuge (IEC Centra-8 tabletop centrifuge, International Equipment Company, Needham, Mass., USA). The cells were resuspended in medium containing 20% FCS for implantation.
Six female nude mice (CrlLNU/NU-nuBR, 6-8 weeks old) were injected subcutaneously into the right flank with tumor cells (2×10^7/100 μL) in 20% matrigel (Collaborative Biomedical Products, Chicago, Ill., USA). Fourteen days after inoculation tumors were visible in all animals. Three weeks after inoculation, tumors were aseptically dissected, minced and implanted into 60 nude mice using a trochar. The tumor xenografts from the second passage were used for biodistribution studies.
A dose of approximately 50-100 μCi ^99mTc-labeled compound/mouse was injected intravenously in a total volume of 100 μL. Mice were sacrificed 90 minutes post-injection by decapitation and the trunk blood was collected. Tumors (1 to 3 per mouse), liver, gastrointestinal tract, kidneys, and samples of muscle from both legs (quadriceps femoralis) were collected, weighed, and counted for radioactivity.

[2] = test system: SSTRs, NCI-H69 membranes; test: [125I]SST-14 binding to NCI-H69 cell membranes (SSTR affinity); set-up: species or system human; conditions: inhibition of [125I]SST-14 binding, two-site fit
Procedure: [^125I-Tyr^11] somatostatin-14 ([^125I]SST-14) was obtained from Amersham. Unlabeled somatostatin-14 was purchased either from BACHEM (Torrance, Calif.) or from Sigma Chemical Co. (St. Louis, Mo.). Protease inhibitors, leupeptin, aprotinin, bacitracin, and benzamidine and other reagents were obtained from Sigma. Protease inhibitors were prepared in dimethylsulfoxide (DMSO) at a concentration 500×higher than the final assay concentration. The prepared protease solution was stored at −20° C. and diluted with the buffer solution before use.
Membrane preparations used in these studies were prepared from two commercially available tumor cell lines, the human small cell lung cancer cell line, NCI-H69, and the rat pancreatic tumor cell line, AR42J, obtained from American Type Culture Collection (ATCC) (Manassas, Va.). NCI-H69 cells were maintained by serial passage in RPMI 1640 with 10% fetal calf serum. AR42J cells were maintained in F-12K medium containing 20% fetal calf serum. Cells in culture flasks were incubated at 37° C. with 5% CO2 in air atmosphere following the recommendations of the “Product Sheet” from ATCC.
Cultured cells were first detached from plates with phosphate-buffered saline, pH 7.4, containing 2 mM EDTA, and centrifuged at 1,500×g for 10 min. Cells were then resuspended in 5-10 mL of the homogenization buffer (1 mM sodium bicarbonate, pH 7.4, 1 mM EDTA, 1 mM EGTA, 2.5 mM DTT, 5 μg/mL leupeptin, 5 μg/mL aprotinin, 100 μg/mL bacitracin, 100 μg/mL benzamidine) for 10 min on ice. The cells were lysed for 30 sec twice in a polytron with a setting at 5. The lysate was centrifuged at 1,000×g for 10 min at 4° C. The supernatant was centrifuged at 40,000×g for 20 min at 4° C. This step was repeated twice with the homogenization buffer in the absence of protease inhibitors. The pellet was then resuspended at 1-5 mg membrane protein/mL in 25 mM Tris, pH 7.4 without the addition of protease inhibitors and the membranes were stored at −80° C. before use. Membrane protein concentration was determined spectroscopically using the bicinchonic acid (BCA) protein assay kit (Pierce Chemical Inc. (Rockford, Ill.).
All [^125I]SST-14 binding assays were performed in 0.5 mL binding buffer containing 50 mM HEPES, pH 7.5, 10 mM MgCl2, 0.25% BSA (w/v) containing protease inhibitors (same as above) and incubated at 37° C. for 45 minutes. After incubation, samples were kept at 4° C. and rapidly filtered under vacuum through a Whatman GF/B glass fiber filter with a 12-well harvester (Skatron Instruments Inc., Sterling, Va.). The filter was washed for 9 seconds with cold 50 mM HEPES, pH 7.5, 10 mM MgCl2, 0.25% BSA (w/v). Thirty-five […] of [^125I]SST-14 from Amersham was used in each tube. Peptides were solubilized in DMSO and serially diluted with DMSO. Five μL of peptide in DMSO was used to obtain the final concentration. DMSO (5 μL) was added to the tube without the addition of any peptide or unlabeled SST-14, so that each tube contained 1% DMSO. Non-specific binding was defined as the binding of [^125I]SST-14 which was not displaceable with an excess of unlabeled SST-14 at a concentration of 1×10^−6 M. The bound [^125I]SST-14 without or with excess unlabeled SST-14 (1×10^−6 M) was defined as total binding and nonspecific binding, respectively. The difference between total and nonspecific binding was defined as specific binding. The percent inhibition (% Inh) by peptide was expressed as
% Inh=(total binding−total binding in the presence of peptide)/specific binding×100%
Inclusion of protease inhibitors in homogenizing medium as well as assay buffer is essential to maintain the integrity of both [^125I]SST-14 and somatostatin analogs for the receptor binding assay and to obtain optimal specific binding. The highest specific binding was observed when MgCl2 (10 mM) was included. Membranes were finally resuspended in a sodium-free medium and receptor binding assays were performed in the absence of sodium ions. […]

[3] = read-out: IC50 Values for Uncomplexed Compounds, NCI-H69 (first value)
[4] = read-out: IC50 Values for Uncomplexed Compounds, NCI-H69 (second value)

| TUMOR [1] | T:B [1] | T:M [1] | pIC50 [2, 3] | pIC50 [2, 4] | Structure (SMILES) |
| --- | --- | --- | --- | --- | --- |
| 10.2 %ID/g | 48 | 104 | 9.46 | 6.63 | C[C@@H](O)[C@@H]1NC(=O)[C@H](CCCCN)NC(=O)[C@@H](Cc2c[nH]c3ccccc23)NC(=O)[C@H](Cc2ccc(O)cc2)NC(=O)[C@H](CCSCC(=O)NC[C@H](N)C(=O)N[C@@H](CCCCN)C(=O)N[C@@H](CS)C(=O)N[C@H](CO)[C@@H](C)O)N(C)C(=O)[C@H](Cc2ccccc2)NC1=O [cyclo-Tyr-D-Trp-Lys-Thr-Phe-(N—CH3)Hcy(CH2 CO-β-Dap-Lys-Cys-Thr(ol))] |
| – | – | – | 9.41 | 9.41 | C[C@@H](O)[C@H](NC(=O)[C@H](CS)NC(=O)[C@H](Cc1ccc(N)cc1)NC(=O)[C@@H](N)CNC(=O)CSCC[C@H]1C(=O)N[C@@H](Cc2ccc(O)cc2)C(=O)N[C@H](Cc2c[nH]c3ccccc23)C(=O)N[C@@H](CCCCN)C(=O)N[C@@H]([C@@H](C)O)C(=O)N[C@@H](Cc2ccccc2)C(=O)N1C)C(=O)NC(CO)CO [cyclo-YWDKTF.(N—CH3)Hcy(CH2CO.β-Dap.F(4-NH2).CT.S(ol))] |
| – | – | – | 9.38 | > 12.00 | C[C@@H](O)[C@@H]1NC(=O)[C@H](CCCCN)NC(=O)[C@@H](Cc2c[nH]c3ccccc23)NC(=O)[C@H](Cc2ccc(O)cc2)NC(=O)[C@H](CCSCC(=O)NC[C@H](N)C(=O)N[C@@H](CCCNC(=N)N)C(=O)N[C@@H](CS)C(=O)N[C@H](CO)[C@@H](C)O)N(C)C(=O)[C@H](Cc2ccccc2)NC1=O [cyclo-Tyr-D-Trp-Lys-Thr-Phe-(N—CH3)Hcy(CH2 CO-β-Dap-Arg-Cys-Thr(ol))] |
| 1.8 %ID/g | 29 | 95 | – | – | C[C@@H](O)[C@@H]1NC(=O)[C@H](CCCCN)NC(=O)[C@@H](Cc2c[nH]c3ccccc23)NC(=O)[C@H](Cc2ccc(O)cc2)NC(=O)[C@H](CCSCC(=O)NCCC[C@H](N)C(=O)NCC(=O)N[C@@H](CS)C(N)=O)N(C)C(=O)[C@H](Cc2ccccc2)NC1=O [cyclo-Tyr-D-Trp-Lys-Thr-Phe-(N—CH3)Hcy(CH2 CO-δ-Orn-Gly-Cys-NH2)] |

Second part, the compound before the results:

| Structure (SMILES) | TUMOR [1] | T:B [1] | T:M [1] | pIC50 [2, 3] | pIC50 [2, 4] |
| --- | --- | --- | --- | --- | --- |
| C[C@@H](O)[C@@H]1NC(=O)[C@H](CCCCN)NC(=O)[C@@H](Cc2c[nH]c3ccccc23)NC(=O)[C@H](Cc2ccc(O)cc2)NC(=O)[C@H](CCSCC(=O)NC[C@H](N)C(=O)N[C@@H](CO)C(=O)N[C@@H](CS)C(=O)N[C@H](CO)[C@@H](C)O)N(C)C(=O)[C@H](Cc2ccccc2)NC1=O [cyclo-Tyr-D-Trp-Lys-Thr-Phe-(N—CH3)Hcy(CH2 CO-β-Dap-Ser-Cys-Thr(ol))] | 12.6 %ID/g | 31 | 144 | 8.80 | > 12.00 |
| C[C@@H](O)[C@@H]1NC(=O)[C@H](CCCCN)NC(=O)[C@@H](Cc2c[nH]c3ccccc23)NC(=O)[C@H](Cc2ccc(O)cc2)NC(=O)[C@H](CCSCC(=O)NC[C@H](N)C(=O)N[C@@H](CN)C(=O)N[C@@H](CS)C(=O)N[C@H](CO)[C@@H](C)O)N(C)C(=O)[C@H](Cc2ccccc2)NC1=O [cyclo-Tyr-D-Trp-Les-Thr-Phe-(N—CH3)Hcy(CH2 CO-β-Dap-Dap-Cys-Thr(ol))] | – | – | – | 9.35 | 7.33 |
| C[C@@H](O)[C@H](NC(=O)[C@H](CS)NC(=O)[C@H](CCN)NC(=O)[C@@H](N)CNC(=O)CSCC[C@H]1C(=O)N[C@@H](Cc2ccc(O)cc2)C(=O)N[C@H](Cc2c[nH]c3ccccc23)C(=O)N[C@@H](CCCCN)C(=O)N[C@@H]([C@@H](C)O)C(=O)N[C@@H](Cc2ccccc2)C(=O)N1C)C(=O)O [cyclo-Tyr-D-Trp-Lys-Thr-Phe-(N—CH3)Hcy(CH2 CO-β-Dap-Dab-Cys-Thr)] | – | – | – | 8.90 | 8.90 |
| C[C@@H](O)[C@@H]1NC(=O)[C@H](CCCCN)NC(=O)[C@@H](Cc2c[nH]c3ccccc23)NC(=O)[C@H](Cc2ccc(O)cc2)NC(=O)[C@H](CCSCC(=O)N[C@@H](CO)C(=O)N[C@@H](CO)C(=O)N[C@@H](CS)C(=O)NCCOCCOCCN)N(C)C(=O)[C@H](Cc2ccccc2)NC1=O [cyclo-Tyr-D-Trp-Lys-Thr-Phe-(N—CH3)Hcy(CH2 CO-Ser-Ser-Cys-NH(CH2 CH2 O)2 CH2 CH2 NH2)] | 10.6 %ID/g | 44 | 132 | 9.19 | < 6.00 |
| C[C@@H](O)[C@H](NC(=O)[C@H](CS)NC(=O)[C@H](Cc1ccc(N)cc1)NC(=O)[C@@H](N)CNC(=O)CSCC[C@H]1C(=O)N[C@@H](Cc2ccc(O)cc2)C(=O)N[C@H](Cc2c[nH]c3ccccc23)C(=O)N[C@@H](CCCCN)C(=O)N[C@@H]([C@@H](C)O)C(=O)N[C@@H](Cc2ccccc2)C(=O)N1C)C(=O)O [cyclo-Tyr-D-Trp-Lys-Thr-Phe-(N—CH3)Hcy(CH2 CO-β-Dap-Phe(4-NH2)-Cys-Thr)] | – | – | – | 9.19 | 9.19 |
| C[C@@H](O)[C@@H]1NC(=O)[C@H](CCCCN)NC(=O)[C@@H](Cc2c[nH]c3ccccc23)NC(=O)[C@H](Cc2ccc(O)cc2)NC(=O)[C@H](CCSCC(=O)NC[C@H](N)C(=O)N[C@@H](CCN)C(=O)N[C@@H](CS)C(=O)N[C@H](CO)[C@@H](C)O)N(C)C(=O)[C@H](Cc2ccccc2)NC1=O [cyclo-Tyr-D-Trp-Lys-Thr-Phe-(N—CH3)Hcy(CH2 CO-β-Dap-Dab-Cys-Thr(ol))] | – | – | – | 9.19 | < 6.00 |
| C[C@@H](O)[C@@H]1NC(=O)[C@H](CCCCN)NC(=O)[C@@H](Cc2c[nH]c3ccccc23)NC(=O)[C@H](Cc2ccc(O)cc2)NC(=O)[C@H](CCSCC(=O)NC[C@H](N)C(=O)N[C@@H](CCN)C(=O)N[C@@H](CS)C(=O)NC(CO)CO)N(C)C(=O)[C@H](Cc2ccccc2)NC1=O [cyclo-Tyr-D-Try-Lys-Thr-Phe-(N—CH3)Hcy(CH2 CO-β-Dap-Dab-Cys-Ser(ol))] | 10.8 %ID/g | 30 | 89 | 8.97 | – |
| CC(O)[C@@H]1NC(=O)[C@H](CCCCN)NC(=O)[C@@H](Cc2c[nH]c3ccccc23)NC(=O)[C@H](Cc2ccc(O)cc2)NC(=O)[C@H](CCS)N(C)C(=O)[C@H](Cc2ccccc2)NC1=O (stereo partly drawn) [cyclo-YWDKTF.(N—CH3).Hcy., cyclo-Tyr-D-Trp-Lys-Thr-Phe-(N—CH3)Hcy] (cyclo(F[NMehCys]Y[dW]K[Thr(3ξ)])) | – | – | – | 9.68 | – |
| CC(C)[C@@H]1NC(=O)[C@H](CCCCN)NC(=O)[C@@H](Cc2c[nH]c3ccccc23)NC(=O)[C@H](Cc2ccc(O)cc2)NC(=O)[C@H](CCS)N(C)C(=O)[C@H](Cc2ccccc2)NC1=O [cyclo-YWDKVF.(N—CH3).Hcy.] (cyclo(Y[dW]KVF[NMehCys])) | – | – | – | 9.68 | – |

Source: patent US6358491B1, “Somatostatin analogs” (Berlex Laboratories, Inc., priority 1999, dated 2002)
